The source of these data is patent publication US10077261B2, “Imidazolin-5-one derivative useful as FASN inhibitors for the treatment of cancer” (Janssen Pharmaceutica NV, priority 2012, dated 2018).

Assay [1] concerns A2780 ovarian cells. Description: A2780 ovarian cell proliferation assay in lipid reduced medium, without palmitate (MTT). The class given is cell-based. Particulars: Homo sapiens, A2780, 96 h; read-out: pIC50 A2780 Ovarian Cell, Without Palmitate (converted).
The target of assay [2] is T1, hFASN enzyme (full length) (Homo sapiens, UniProt P49327).
T1 construct: 10 μL hFASN enzyme (full length, 300 ng, purified in house); made in house
T1 sequence (P49327 whole entry): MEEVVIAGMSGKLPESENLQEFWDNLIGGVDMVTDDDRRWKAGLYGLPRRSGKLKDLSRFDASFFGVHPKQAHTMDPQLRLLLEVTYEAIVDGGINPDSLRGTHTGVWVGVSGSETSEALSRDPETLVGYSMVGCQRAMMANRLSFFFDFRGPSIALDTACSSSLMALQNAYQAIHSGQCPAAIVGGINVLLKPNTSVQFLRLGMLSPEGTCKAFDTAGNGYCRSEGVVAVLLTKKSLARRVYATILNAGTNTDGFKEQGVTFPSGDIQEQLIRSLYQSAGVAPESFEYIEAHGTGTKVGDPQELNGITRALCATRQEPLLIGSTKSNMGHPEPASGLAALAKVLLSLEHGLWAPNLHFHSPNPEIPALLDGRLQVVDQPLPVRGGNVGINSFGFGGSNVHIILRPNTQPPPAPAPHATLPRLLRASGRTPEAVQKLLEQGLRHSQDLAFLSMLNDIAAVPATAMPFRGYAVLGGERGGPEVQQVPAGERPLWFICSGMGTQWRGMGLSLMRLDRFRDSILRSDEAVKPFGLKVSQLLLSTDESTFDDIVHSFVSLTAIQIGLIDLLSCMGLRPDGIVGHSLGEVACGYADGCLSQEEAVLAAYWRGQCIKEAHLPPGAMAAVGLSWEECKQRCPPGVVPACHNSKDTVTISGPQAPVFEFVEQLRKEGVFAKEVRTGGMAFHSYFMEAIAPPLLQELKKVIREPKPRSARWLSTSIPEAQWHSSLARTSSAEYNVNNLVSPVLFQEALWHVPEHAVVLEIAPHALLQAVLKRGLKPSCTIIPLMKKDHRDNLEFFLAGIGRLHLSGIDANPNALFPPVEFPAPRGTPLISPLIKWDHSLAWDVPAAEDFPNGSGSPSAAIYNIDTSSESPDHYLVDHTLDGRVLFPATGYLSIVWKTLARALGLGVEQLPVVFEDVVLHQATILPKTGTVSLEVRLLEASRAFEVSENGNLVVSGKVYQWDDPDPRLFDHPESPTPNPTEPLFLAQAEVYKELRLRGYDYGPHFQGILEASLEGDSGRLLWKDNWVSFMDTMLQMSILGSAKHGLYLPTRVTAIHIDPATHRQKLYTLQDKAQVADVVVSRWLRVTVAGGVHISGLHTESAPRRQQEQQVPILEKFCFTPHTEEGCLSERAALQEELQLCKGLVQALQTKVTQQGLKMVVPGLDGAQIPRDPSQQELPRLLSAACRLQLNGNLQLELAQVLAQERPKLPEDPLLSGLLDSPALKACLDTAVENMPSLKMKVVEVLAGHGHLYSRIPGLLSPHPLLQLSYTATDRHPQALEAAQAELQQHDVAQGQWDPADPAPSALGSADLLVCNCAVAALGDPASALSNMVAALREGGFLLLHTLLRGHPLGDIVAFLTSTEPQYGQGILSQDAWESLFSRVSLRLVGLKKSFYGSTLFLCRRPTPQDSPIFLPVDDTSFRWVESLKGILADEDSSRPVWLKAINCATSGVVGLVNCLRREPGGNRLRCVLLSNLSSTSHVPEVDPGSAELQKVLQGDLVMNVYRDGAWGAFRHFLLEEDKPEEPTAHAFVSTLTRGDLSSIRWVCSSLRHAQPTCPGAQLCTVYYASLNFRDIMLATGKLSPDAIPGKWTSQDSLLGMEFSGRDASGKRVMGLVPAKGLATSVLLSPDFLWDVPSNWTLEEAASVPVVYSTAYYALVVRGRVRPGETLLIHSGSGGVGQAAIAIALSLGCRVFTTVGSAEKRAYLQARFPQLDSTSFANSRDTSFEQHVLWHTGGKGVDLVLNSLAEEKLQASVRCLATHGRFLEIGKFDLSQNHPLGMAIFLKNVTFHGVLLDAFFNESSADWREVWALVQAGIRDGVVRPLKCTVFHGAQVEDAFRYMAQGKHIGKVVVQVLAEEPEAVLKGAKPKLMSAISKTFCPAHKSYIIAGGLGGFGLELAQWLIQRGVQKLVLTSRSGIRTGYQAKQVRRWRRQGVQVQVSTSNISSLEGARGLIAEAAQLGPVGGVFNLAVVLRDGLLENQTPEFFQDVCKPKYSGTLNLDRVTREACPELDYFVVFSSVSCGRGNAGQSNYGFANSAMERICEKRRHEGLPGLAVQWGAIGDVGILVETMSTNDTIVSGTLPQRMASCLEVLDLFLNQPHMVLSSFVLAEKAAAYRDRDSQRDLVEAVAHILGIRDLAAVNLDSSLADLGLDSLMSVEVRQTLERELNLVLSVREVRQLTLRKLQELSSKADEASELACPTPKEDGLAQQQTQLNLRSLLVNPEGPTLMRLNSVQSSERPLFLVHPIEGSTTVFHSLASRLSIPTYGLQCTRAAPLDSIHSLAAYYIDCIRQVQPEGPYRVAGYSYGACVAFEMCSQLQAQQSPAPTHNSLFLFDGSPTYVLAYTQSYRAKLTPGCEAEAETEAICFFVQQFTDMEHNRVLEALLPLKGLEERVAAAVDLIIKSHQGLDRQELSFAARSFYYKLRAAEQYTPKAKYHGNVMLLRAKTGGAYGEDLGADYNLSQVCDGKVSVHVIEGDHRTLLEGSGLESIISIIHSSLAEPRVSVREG
Description: Fatty Acid Synthase (FASN) inhibition scintillation proximity assay. The assay is classed as biochemical. Particulars: for inhibition at 10 µM: read-out: Human FASN % inhibition @ 10 μM, 10 μM test compound; for IC50: read-out: Human FASN pIC50 (converted). Summed up:
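Purified full-length hFASN (300 ng) converts ^3H-acetyl-CoA plus malonyl-CoA to ^3H-palmitate in 100 mM KH2PO4 pH 7.5, 1 mM DTT; compounds tested at 0.01–30 μM. Product captured on streptavidin imaging beads and read by LEADseeker at 610 nm after ≥24 h; 4-parameter logistic fit versus controls.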

In assay [3] the test system is A2780 ovarian cells. Put plainly: A2780 ovarian cell proliferation assay in lipid reduced medium, with palmitate (MTT). The class given is cell-based. Particulars: Homo sapiens, A2780, 96 h; read-out: pIC50 A2780 Ovarian Cell, With Palmitate (converted). An outline of the steps:
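Seeded cells were switched next day to lipid-reduced serum, exposed to compound and 25 μM palmitate complexed with fatty-acid-free BSA, and incubated 96 h. Proliferation was then determined by MTT absorbance at 544 nm, with a best-fit curve of signal against concentration.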

Take `Cc1cc(Cl)c2ccc(-c3ccc(C4=NC5(CC5)C(=O)N4CC4CN(C(=O)C5(C)CC5)C4)c(C)c3)cc2n1` [compound 597, 5-[4-(4-Chloro-2-methylquinolin-7-yl)-2-methylphenyl]-6-({1-[(1-methylcyclopropyl)carbonyl]azetidin-3-yl}methyl)-4,6-diazaspiro[2.4]hept-4-en-7-one]: the values for the IC50 (in the assay on A2780 ovarian cells [1]; in assay [2]; in the assay on A2780 ovarian cells [3]) were 3.63 µM, around 4.27 µM and 4.37 µM, respectively. Besides, the inhibition at 10 µM in assay [2] came out at 65%.
For `Cc1ccc2c(-c3ccc(C4=NC5(CC5)C(=O)N4CC4CN(C(=O)C5(C)CC5)C4)c(C)c3)cccc2n1` [compound 603, 6-({1-[(1-Methylcyclopropyl)carbonyl]azetidin-3-yl}methyl)-5-[2-methyl-4-(2-methylquinolin-5-yl)phenyl]-4,6-diazaspiro[2.4]hept-4-en-7-one] the same measures were around 3.31 µM, 1.15 µM, above 10 µM and 87%.
For `Cc1cc(-c2cc(C)c3ccc(Br)cc3n2)ccc1C1=NC2(CC2)C(=O)N1CC1CN(C(=O)C2(C)CC2)C1` [compound 605, 5-[4-(7-Bromo-4-methylquinolin-2-yl)-2-methylphenyl]-6-({1-[(1-methylcyclopropyl)carbonyl]azetidin-3-yl}methyl)-4,6-diazaspiro[2.4]hept-4-en-7-one] the same measures were 4.79 µM, 6.61 µM, 6.31 µM and 62%.
For `Cc1cc(-c2ccc3nn(C)c(C#N)c3c2)ccc1C1=NC2(CC2)C(=O)N1CC1CN(C(=O)C2CC2)C1` [compound 610] the same measures were 2.88 µM, 1.05 µM, 4.57 µM and 87%.
Take `N#Cc1ccc2ccc(-c3ccc(C4=NC5(CC5)C(=O)N4CC4CN(C(=O)C5CC5)C4)cc3)cc2n1` [compound 611, 7-[4-(6-{[1-(Cyclopropylcarbonyl)azetidin-3-yl]methyl}-7-oxo-4,6-diazaspiro[2.4]hept-4-en-5-yl)phenyl]quinolin-2-carbonitrile]: the IC50 was above 10 µM in the assay on A2780 ovarian cells [1], around 10 µM in assay [2] and above 10 µM with A2780 ovarian cells [3]. In addition, the inhibition at 10 µM in assay [2] amounted to 46%.
Regarding `Cn1ncc2cc(-c3ccc(C4=NC5(CC5)C(=O)N4CC4CN(C(=O)C5CC5)C4)cc3Cl)ccc21` [compound 612, 5-[3-Chloro-4-(1-methyl-1H-indazol-5-yl)phenyl]-6-{[1-(cyclopropylcarbonyl)azetidin-3-yl]methyk}-4,6-diazaspiro[2.4]hept-4-en-7-one], the values for the IC50 (in the assay with A2780 ovarian cells [1]; in assay [2]; in the assay on A2780 ovarian cells [3]) were 3.8 µM, 2.04 µM and above 10 µM, respectively. Moreover, the inhibition at 10 µM in assay [2] turned out to be 74%.
Taken in the same sequence, the figures for `Cc1cc(-c2ccc3ccc(C(F)(F)F)nc3c2)ccc1C1=NC2(CC2)C(=O)N1CC1CN(C(=O)C2(C)CC2)C1` [compound 620, 6-({1-[(1-Methylcyclopropyl)carbonyl]azetidin-3-yl}methyl)-5-{2-methyl-4-[2-(trifluoromethyl)quinolin-7-yl]phenyl}-4,6-diazaspiro[2.4]hept-4-en-7-one] were around 4.79 µM, 3.98 µM, above 10 µM and 71%.
As for `Cc1cc(-c2ccc3c(C)cc(Cl)nc3c2)ccc1C1=NC2(CC2)C(=O)N1CC1CN(C(=O)C2(C)CC2)C1` [compound 624, 5-[4-(2-Chloro-4-methylquinolin-7-yl)-2-methylphenyl]-6-({1-[(1-methylcyclopropyl)carbonyl]azetidin-3-yl}methyl)-4,6-diazaspiro[2.4]hept-4-en-7-one], the IC50 with A2780 ovarian cells [1] is 1.45 µM; in assay [2], 2.24 µM; in the assay on A2780 ovarian cells [3], 6.61 µM. Further, the inhibition at 10 µM in assay [2] is 76%.
For `Cc1cc(-c2cc(Cl)c3cn[nH]c3c2)ccc1C1=NC2(CC2)C(=O)N1CC1CN(C(=O)C2CC2)C1` [compound 629, 5-[4-(4-Chloro-1H-indazol-6-yl)-2-methylphenyl]-6-{[1-(cyclopropylcarbonyl)azetidin-3-yl]methyl}-4,6-diazaspiro[2.4]hept-4-en-7-one] the same measures were 7.76 µM, 7.41 µM, above 10 µM and 55%.
Consider `O=C(C1CC1)N1CC(CN2C(=O)C3(CC3)N=C2c2ccc(-c3cc(C(F)(F)F)ccc3F)cc2F)C1` [compound 630, 6-{[1-(Cyclopropylcarbonyl)azetidin-3-yl]methyl}-5-[2′,3-difluoro-5′-(trifluoromethyl)biphenyl-4-yl]-4,6-diazaspiro[2.4]hept-4-en-7-one], for which the IC50 was 4.07 µM in the assay with A2780 ovarian cells [1], 3.16 µM in assay [2] and above 10 µM in the assay on A2780 ovarian cells [3]. For the same compound, the inhibition at 10 µM in assay [2] stood at 67%.
Taken in the same sequence, the figures for `CC(C)S(=O)(=O)c1cccc(-c2ccc(C3=NC4(CC4)C(=O)N3CC3CN(C(=O)C4CC4)C3)c(F)c2)c1` [compound 631, 6-{[1-(Cyclopropylcarbonyl)azetidin-3-yl]methyl}-5-{3-fluoro-3′-[(1-methylethyl)sulfonyl]biphenyl-4-yl}-4,6-diazaspiro[2.4]hept-4-en-7-one] were 5.89 µM, 8.51 µM, above 10 µM and 47%.
Taken in the same sequence, the figures for `CC(C)S(=O)(=O)c1cccc(-c2ccc(C3=NC4(CC4)C(=O)N3C[C@@H]3CCN(C(=O)C4CC4)C3)c(F)c2)c1` [compound 632, 6-{[(3R)-1-(Cyclopropylcarbonyl)pyrrolidin-3-yl]methyl}-5-{3-fluoro-3′-[(1-methylethyl)sulfonyl]biphenyl-4-yl}-4,6-diazaspiro[2.4]hept-4-en-7-one] were around 2.4 µM, 2.75 µM, above 10 µM and 70%.
For `Cc1cc(-c2cccc(S(C)(=O)=O)c2)ccc1C1=NC2(CC2)C(=O)N1C[C@@H]1CCN(C(=O)C2CC2)C1` [compound 633, 6-{[(3R)-1-(Cyclopropylcarbonyl)pyrrolidin-3-yl]methyl}-5-[3-methyl-3′-(methylsulfonyl)biphenyl-4-yl]-4,6-diazaspiro[2.4]hept-4-en-7-one], the IC50 in the assay with A2780 ovarian cells [1] is 5.25 µM; in assay [2], 8.32 µM; with A2780 ovarian cells [3], above 10 µM. Also, the inhibition at 10 µM in assay [2] turned out to be 56%.
Take `CS(=O)(=O)c1cccc(-c2ccc(C3=NC4(CC4)C(=O)N3C[C@@H]3CCN(C(=O)C4CC4)C3)c(F)c2)c1` [compound 634, 6-{[(3R)-1-(Cyclopropylcarbonyl)pyrrolidin-3-yl]methyl}-5-[3-fluoro-3′-(methylsulfonyl)biphenyl-4-yl]-4,6-diazaspiro[2.4]hept-4-en-7-one]: the figures for the IC50 (in the assay with A2780 ovarian cells [1]; in assay [2]; in the assay with A2780 ovarian cells [3]) were 2 µM, 3.02 µM and above 10 µM, respectively. The inhibition at 10 µM in assay [2] was determined as 68%.
Taken in the same sequence, the figures for `Cc1cc(-c2cccc(S(=O)(=O)C(C)C)c2)ccc1C1=NC2(CC2)C(=O)N1C[C@@H]1CCN(C(=O)C2CC2)C1` [compound 636, 6-{[(3R)-1-(Cyclopropylcarbonyl)pyrrolidin-3-yl]methyl}-5-{3-methyl-3′-[(1-methylethyl)sulfonyl]biphenyl-4-yl}-4,6-diazaspiro[2.4]hept-4-en-7-one] were around 5.89 µM, 6.76 µM, above 10 µM and 59%.
Turning to `Cc1cc(-c2cccc(S(=O)(=O)C3CC3)c2)ccc1C1=NC2(CC2)C(=O)N1CC1CN(C(=O)C2CC2)C1` [compound 640, 6-{[1-(Cyclopropylcarbonyl)azetidin-3-yl]methyl}-5-[3′-(cyclopropylsulfonyl)-3-methylbiphenyl-4-yl]-4,6-diazaspiro[2.4]hept-4-en-7-one], the IC50 with A2780 ovarian cells [1] is 8.32 µM; in assay [2] it was 5.37 µM; in the assay with A2780 ovarian cells [3], above 10 µM. Besides, the inhibition at 10 µM in assay [2] is 64%.
Turning to `Cc1cc(-c2cccc(S(=O)(=O)C3CC3)c2)ccc1C1=NC2(CC2)C(=O)N1C[C@@H]1CCN(C(=O)C2CC2)C1` [compound 646, 6-{[(3R)-1-(Cyclopropylcarbonyl)pyrrolidin-3-yl]methyl}-5-[3′-(cyclopropylsulfonyl)-3-methylbiphenyl-4-yl]-4,6-diazaspiro[2.4]hept-4-en-7-one], the IC50 in the assay on A2780 ovarian cells [1] was 2.45 µM; in assay [2], 1.17 µM; in the assay on A2780 ovarian cells [3], above 10 µM. The inhibition at 10 µM in assay [2] amounted to 88%.
For `Cn1c(-c2ccc(C3=NC4(CC4)C(=O)N3CC3CN(C(=O)C4CC4)C3)c(F)c2)nc2ccccc21` [compound 648, 6-{[1-(Cyclopropylcarbonyl)azetidin-3-yl]methyl}-5-[2-fluoro-4-(1-methyl-1H-benzimidazol-2-yl)phenyl]-4,6-diazaspiro[2.4]hept-4-en-7-one] the same measures were 2.51 µM, 2.57 µM, above 10 µM and 74%.
On to `Cc1cc(-c2cccc(SC3CC3)c2)ccc1C1=NC2(CC2)C(=O)N1CC1CN(C(=O)C2CC2)C1` [compound 650, 6-{[1-(Cyclopropylcarbonyl)azetidin-3-yl]methyl}-5-[3′-(cyclopropylsulfanyl)-3-methylbiphenyl-4-yl]-4,6-diazaspiro[2.4]hept-4-en-7-one], for which the values for the IC50 (in the assay on A2780 ovarian cells [1]; in assay [2]; with A2780 ovarian cells [3]) were 4.9 µM, 1.35 µM and above 10 µM, respectively. The inhibition at 10 µM in assay [2] is 84%.

As a reminder, the inhibition is the drop in the measured response relative to a control, in per cent.
